Experimental data taken from paper PMC4917657, “SP6616 as a new Kv2.1 channel inhibitor efficiently promotes β-cell survival involving both PKC/Erk1/2 and CaM/PI3K/Akt signaling pathways” (Cell Death & Disease, 2016).
pIC50: −log10 of the molar value.

System: T1, Kv2.2
T1 construct: gene KCNB2
Assay: channel inhibition in CHO cells transfected with pcDNA3.1a-Kv2.[…] (Supplementary Figure […])
Type: cell-based

- pIC50: 4.87
SMILES: CCOC(=O)C1=C(C)N=c2sc(=Cc3ccc(O)c(OC)c3)c(=O)n2C1c1ccc(OC)c(OCC)c1 (stereo not shown) [SP6616, ethyl 5-(3-ethoxy-4-methoxyphenyl)-2-(4-hydroxy-3-methoxybenzylidene)-7-methyl-3-oxo-2,3-dihydro-5H-[1,3]thiazolo[3,2–a]pyrimidine-6-carboxylate]
